Results on 1 substance are retold here after PMC6349357, “Computational and experimental analysis of bioactive peptide linear motifs in the integrin adhesome” (PLoS ONE, 2019).

“Also recorded” adds a separate entry of the source.

In one test the target is T1, vinculin (Homo sapiens, UniProt P18206).
T1 sequence (P18206 1-1066 isoform P18206-2): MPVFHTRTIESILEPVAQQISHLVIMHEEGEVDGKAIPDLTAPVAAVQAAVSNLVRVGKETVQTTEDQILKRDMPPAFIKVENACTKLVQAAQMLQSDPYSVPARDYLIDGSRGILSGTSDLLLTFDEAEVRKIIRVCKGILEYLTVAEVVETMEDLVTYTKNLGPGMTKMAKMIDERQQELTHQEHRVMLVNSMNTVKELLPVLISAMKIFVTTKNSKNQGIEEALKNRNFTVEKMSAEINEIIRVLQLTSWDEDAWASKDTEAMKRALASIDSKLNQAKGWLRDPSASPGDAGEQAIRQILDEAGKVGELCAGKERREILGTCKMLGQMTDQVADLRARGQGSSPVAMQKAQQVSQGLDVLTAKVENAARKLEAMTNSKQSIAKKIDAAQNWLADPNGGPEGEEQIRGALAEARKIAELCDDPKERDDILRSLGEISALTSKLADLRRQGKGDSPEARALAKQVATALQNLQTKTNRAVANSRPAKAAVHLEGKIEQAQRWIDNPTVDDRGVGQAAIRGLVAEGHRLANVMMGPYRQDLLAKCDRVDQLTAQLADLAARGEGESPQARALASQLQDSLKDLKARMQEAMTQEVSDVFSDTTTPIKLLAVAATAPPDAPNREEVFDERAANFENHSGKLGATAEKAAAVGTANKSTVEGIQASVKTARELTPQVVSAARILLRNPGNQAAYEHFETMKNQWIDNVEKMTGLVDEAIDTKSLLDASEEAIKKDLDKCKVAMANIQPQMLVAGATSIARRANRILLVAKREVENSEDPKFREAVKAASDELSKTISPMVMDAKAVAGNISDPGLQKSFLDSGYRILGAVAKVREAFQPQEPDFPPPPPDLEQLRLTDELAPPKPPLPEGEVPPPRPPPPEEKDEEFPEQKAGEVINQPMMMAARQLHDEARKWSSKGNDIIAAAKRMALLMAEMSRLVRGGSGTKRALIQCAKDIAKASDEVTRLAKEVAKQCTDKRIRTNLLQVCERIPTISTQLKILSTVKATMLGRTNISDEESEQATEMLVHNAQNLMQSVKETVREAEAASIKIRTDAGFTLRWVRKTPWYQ
Nature of the test: Surface plasmon resonance, peptides injected over immobilised vinculin. The format is binding. The conditions noted are these: SPR, CM5 chip, serial peptide injections at 1 mM; rank order. Here is the method:
The SPR experiments were performed using a Biacore T200 system (GE Healthcare), and Series S CM5 or SA chips with 4 flow cells each.
Lyophilized vinculin was dissolved in flow buffer to a concentration of 1 mg/ml and covalently coupled onto the carboxymethylated dextran matrix of CM5 sensor chips using standard amine coupling. The flow buffer contained 10 mM HEPES, 150 mM NaCl, 3 mM EDTA, 0.05% surfactant P20. The chip was activated with an injection of 70 μl of a mixture of 0.05 M EDC and 0.2 M NHS, followed by the injection of approximately 70 μl of 10 μg/ml vinculin in 10 mM sodium acetate, pH 5.0 in one flow cell to yield a response of 7200 RU. Remaining reactive groups in the channel were blocked with an injection of 100 μl ethanolamine. Binding experiments were performed by injecting peptides for 120 s at a flow rate of 20 μl/min, at a concentration of 1 mM in the flow buffer over the chip surface to monitor association kinetics, followed by buffer flow for 120 s to measure dissociation kinetics. Between experiments, the surface was regenerated by injecting a 60 second pulse of 10 mM glycine pH 2.

Test [1] has as its system tyrosine phosphorylation in platelets. In words: Phosphotyrosine western blot (4G10) of platelets treated with peptide. The conditions noted are these: phosphorylation changes associated with peptide treatment; pal 20 μM, tat 50 μM, TRAP 4 μM. It is filed as cell-based, human (healthy volunteers). Set-up: key to Phospho: R: in resting platelets; A: after TRAP activation. Here is the method: A platelet concentration of 3x10^5 /μl was used when performing standard aggregations and a concentration of 1x10^6 /μl was used for sample preparation for western blot analysis. The extent of platelet aggregation was measured by quantifying the optical density of the samples using the Bio-Data PAP-8 aggregometer (platelet aggregation profiler, Horsham, PA, USA). A temperature of 37°C was maintained and samples were stirred using magnets spinning at 1100 rpm. 200 μl of washed platelets was added to each aggregation tube. Different volumes of buffer, peptide and TRAP were added to achieve the desired concentrations. Peptide/buffer was added to each well after two minutes. TRAP, with a final concentration depending on the experiment, was added 6 minutes later and data was collected for an additional 7 minutes.
After the aggregation step, tubes were immediately placed on ice. 27 μl of lysis buffer was then added and the tube was vortexed vigorously. Lysates were left on ice for one hour and vortexed frequently. Proteins were then centrifuged at 14,000 rcf for 10 minutes to remove debris. Samples were then mixed with 2x sample buffer. 50 μl each sample was added to 50 μl of sample buffer. The protein was then denatured by heating to 95°C for 5 minutes. 10 μl of lysate was kept for protein quantification. All samples and lysates were frozen at -80°C.
The Bradford assay was then performed on the lysates to determine protein concentration. Protein concentrations were measured using the Bio-Rad DC Protein Assay. A calibration was created using samples containing a known concentration of bovine serum albumin. These were prepared in advance by sequential dilutions with final concentrations of 1.5mg/ml, 1mg/ml, 0.8mg/ml, 0.6mg/ml, 0.4mg/ml, 0.2mg/ml, 0mg/ml. Samples were then dispensed into a 96 well plate and the Bio-Rad DC reagents were added as described in the protocol. Samples were left to rest for 15 minutes and were then read using 690 0.15 mode on the Wallac plate reader. A standard curve was calculated from the standard samples of known concentration and the y = ax+b equation was used to determine the concentration of the other samples.
Sodium Dodecyl Sulfate Polyacrylamide Gel Electrophoresis (SDS-PAGE) was performed to separate proteins by molecular weight. Polyacrylamide gels were prepared (see Reagents section). Samples or molecular markers were loaded in volumes to give 20 μg of protein. The gels were then run for approximately 80 minutes or until the samples reached the end of the gel. The proteins were then transferred to polyvinylidene difluoride (PVDF) membranes using a Bio-Rad Wet Blot Transfer Cell apparatus. During the transfer the membranes were submerged in 1x transfer buffer (10% 10x transfer buffer, 70% deionised water and 20% methanol). Transfer was performed either overnight at 40 volts at 4°C, or at 100 volts for 1 hour cooled with an ice block. After the transfer the membranes were blocked for 1 hour using 3% bovine albumin serum (BSA) dissolved in TBS-T. Membranes were incubated with 4G10 antibody with a 1:1000 dilution. Unbound primary antibody was washed off with TBS-T three times for 5 minutes each. Membranes were then incubated with anti-mouse IgG secondary antibody (Millipore) with a dilution of 1:30,000. Membranes were submerged in chemiluminescence ECL solution (Thermo Scientific). They were then measured using the western blot developer UVP. One image was taken every 80 seconds for 40 minutes. Numeric data was extracted from selected blots using ImageJ.
(A western blot detects proteins with antibodies after separation by electrophoresis.)

Take “tat-WEQLLTTIARTINEVENQI-(NH2) [tat-ACTN1_VBS]”: at vinculin, the “Relative binding affinity to immobilised vinculin” value is listed as “tat-ACTN1_VBS > TLN1_VBS-tat > ACTN1_VBS-tat > ACTN1_VBS; also recorded: bound with relatively higher affinity”. In addition, the Phospho result in test [1] is reported as “R”.
